Literature values, collected in US8323615B2, “Methods of processing multi-phasic dispersions” (Baxter International Inc., priority 2008, dated 2012).
Counter-ions that a name gives are not always drawn. Like-named read-outs stand apart in the source and are kept apart here.

What was measured:
[1] = ambient temperature such as 20-25° C.
rats = settings: for LD50, cells marked "I": value followed by undefined mark "I"
[2] = rats, oral, all at once (acute toxicity), minimal amount reported in the literature

Question: What does the source list for `CC(Cl)(Cl)Cl` [1,1,1-trichloroethane]?
Answer: Sol. (solubility of water in the liquid) ([1]; unit not given): 0.15 g/100 g; Sol. (solubility of water in the liquid) ([1]; parts per million by weight): 170 ppm; LD50 (rats; [2]): 9.6 g/kg body weight; LD50 (rats; rats, oral, all at once (acute toxicity), minimal amount reported in the literature, listed as 1,1,1-TCA): 16 g/kg body weight

Question: For `ClC=C(Cl)Cl` [1,1,2-trichloroethylene], which “Sol. (solubility of water in the liquid)” value ([1]; unit not given) is on record?
Answer: 0.11 g/100 g

Question: And the LD50 (rats; [2])?
Answer: 2.4 g/kg body weight

Question: With `FC(F)(Cl)C(F)(F)Cl` [1,2-dichlorotetrafluoroethane] as the compound, how does the “Sol. (solubility of water in the liquid)” value ([1]; unit not given) read?
Answer: 0.13 g/100 g

Question: What about the LD50 (rats; [2]) of the same compound?
Answer: 2.25 g/kg body weight

Question: With `OCC(F)(F)F` [2,2,2-trifluoroethanol] as the compound, how does the LD50 (rats; [2]) read?
Answer: 0.24 g/kg body weight

Question: Which LD50 (rats; [2]) does the source give for `C[S+](C)[O-]` [DMSO, dimethylsulfoxide] here?
Answer: 18 g/kg body weight

Question: With `FC(F)(F)C(F)(F)C(F)(F)C(F)(F)N(C(F)(F)C(F)(F)C(F)(F)C(F)(F)F)C(F)(F)C(F)(F)C(F)(F)C(F)(F)F` [Fluorinert ® FC-43, perfluorotributylamine] as the compound, how does the “Sol. (solubility of water in the liquid)” value ([1]; parts per million by weight) read?
Answer: 7 ppm

Question: What about the LD50 (rats; [2]) of the same compound?
Answer: 10 g/kg body weight

Question: Which results are given for `FC(F)(F)C(F)(F)C(F)(F)C(F)(F)C(F)(F)N(C(F)(F)C(F)(F)C(F)(F)C(F)(F)C(F)(F)F)C(F)(F)C(F)(F)C(F)(F)C(F)(F)C(F)(F)F` [Fluorinert ® FC-70, perfluorotriamylamine]?
Answer: Sol. (solubility of water in the liquid) ([1]; parts per million by weight): 8 ppm; LD50 (rats; [2]): NTO

Question: Which LD50 (rats; [2]) does the source give for `NC=O` [Formamide] here?
Answer: 5.5 g/kg body weight

Question: Which LD50 (rats; rat, in vivo, po) does the source give for `O=Cc1ccco1` [Furfural] here?
Answer: 0.05 g/kg body weight

Question: With `CC(F)(Cl)Cl` [Genesolv ® 2000 HFC-141b] as the compound, how does the LD50 (rats; [2]) read?
Answer: >5 g/kg body weight

Question: What does the source list for `FC(F)CC(F)(F)F` [Genesolv ® S-F, 1,1,1,3,3-pentafluoropropane]?
Answer: Sol. (solubility of water in the liquid) ([1]; parts per million by weight): 1600 ppm; LD50, cells marked "I" (rats): >200 I g/kg body weight

Question: What does the source list for `FCC(F)(F)F` [Genetron ® HFC-134a]?
Answer: Sol. (solubility of water in the liquid) ([1]; in %): 0.11%; LD50, cells marked "I" (rats): 62 I g/kg body weight

Question: With `OCC(O)CO` [Glycerol] as the compound, how does the LD50 (rats; rat, in vivo, po) read?
Answer: 13 g/kg body weight

Question: Which results are given for `FC(C(F)C(F)(F)C(F)(F)F)C(F)(F)F` (stereo not drawn) [HFC-4310mee]?
Answer: Sol. (solubility of water in the liquid) ([1]; parts per million by weight): 400 ppm; LD50, cells marked "I" (rats): 11 I g/kg body weight

Question: What does the source list for `CN1CCCC1=O` [N-methylpyrrolidone]?
Answer: Sol. (solubility of water in the liquid) ([1]; in %): 100%; LD50 (rats; [2]): 4.15 g/kg body weight

Question: With `O=C(C(F)(F)C(F)(F)F)C(F)(C(F)(F)F)C(F)(F)F` [Novec ™ 1230, dodecafluoro-2-methylpentan-3-one] as the compound, how does the “LD50, cells marked "I"” value (rats) read?
Answer: >100 I g/kg body weight

Question: For `COC(F)(F)C(F)(F)C(F)(F)F` [Novec ™ HFE-7000, 1-methoxyheptafluoropropane], which “Sol. (solubility of water in the liquid)” value ([1]; parts per million by weight) is on record?
Answer: 60 ppm

Question: And the LD50 (rats; [2])?
Answer: >2 g/kg body weight

Question: Which “Sol. (solubility of water in the liquid)” value ([1]; parts per million by weight) does the source give for `CCOC(F)(F)C(F)(F)C(F)(F)C(F)(F)F` [Novec ™ HFE-7200, ethoxynonafluorobutane] here?
Answer: 92 ppm

Question: And the LD50 (rats; [2])?
Answer: >5 g/kg body weight

Question: For `CCOC(F)(C(F)(F)C(F)(F)C(F)(F)F)C(F)(C(F)(F)F)C(F)(F)F` (stereo not drawn) [Novec ™ HFE-7500, 2-trifluoromethyl-3-ethoxydodecafluorohexane], which LD50 (rats; [2]) is on record?
Answer: >2 g/kg body weight

Question: Which LD50 (rats; [2]) does the source give for `FC(F)(F)C(F)(F)C(F)(F)C(F)(F)C(F)(F)C(F)(F)F` [PF-5060 & PF-5060DL] here?
Answer: >5 g/kg body weight

Question: Which results are given for `FC(F)(F)C(F)(F)C(F)(F)C(F)(F)C(F)(F)C(F)(F)F` [Perfluorohexane]?
Answer: Sol. (solubility of water in the liquid) ([1]; unit not given): 0.03 g/100 g; Sol. (solubility of water in the liquid) ([1]; parts per million by weight): 10 ppm; LD50 (rats; [2]): 5 g/kg body weight

Question: Which LD50 (rats; [2]) does the source give for `O=S1(=O)CCCC1` [Sulfolane] here?
Answer: 1.94 g/kg body weight

Question: With `C1OCOCO1` [Trioxane] as the compound, how does the “Sol. (solubility of water in the liquid), in words” value [1] read?
Answer: soluble

Question: What about the LD50 (rats; [2]) of the same compound?
Answer: 3.2 g/kg body weight

Question: Which results are given for `S=C=S` [carbon disulfide]?
Answer: Sol. (solubility of water in the liquid) ([1]; in %): <1%; LD50 (rats; rat, in vivo, po): 3.2 g/kg body weight

Question: With `ClC(Cl)(Cl)Cl` [carbon tetrachloride] as the compound, how does the “Sol. (solubility of water in the liquid)” value ([1]; unit not given) read?
Answer: 0.05 g/100 g

Question: And the LD50 (rats; [2])?
Answer: 2.3 g/kg body weight

Question: For `CCOC(=O)C(=O)OCC` [diethyl oxalate], which LD50 (rats; rat, in vivo, po) is on record?
Answer: 0.4 g/kg body weight

Question: Which “Sol. (solubility of water in the liquid)” value ([1]; in %) does the source give for `COCCOCCO` [diethylene glycol methyl ether] here?
Answer: 100%

Question: With `OCCOCCO` [diethylene glycol] as the compound, how does the LD50 (rats; [2]) read?
Answer: 13 g/kg body weight

Question: With `c1ccc(Oc2ccccc2)cc1` [diphenyl ether] as the compound, how does the LD50 (rats; [2]) read?
Answer: 3.37 g/kg body weight

Question: With `O=C1OCCO1` [ethylene carbonate] as the compound, how does the LD50 (rats; [2]) read?
Answer: 10 g/kg body weight

Question: Which results are given for `OCCOCc1ccccc1` [ethylene glycol monobenzyl ether]?
Answer: Sol. (solubility of water in the liquid) ([1]; unit not given): 4 g/100 g; LD50 (rats; [2]): 1.19 g/kg body weight

Question: Which LD50 (rats; rat, in vivo, po) does the source give for `OCc1ccco1` [furfuryl alcohol] here?
Answer: 0.275 g/kg body weight

Question: With `O=C1CCCO1` [gamma-butyrolactone] as the compound, how does the LD50 (rats; rat, in vivo, po) read?
Answer: 1.54 g/kg body weight

Question: With `COC(=O)C(C)O` (stereo not drawn) [lactic acid, methyl ester] as the compound, how does the “Sol. (solubility of water in the liquid), in words” value [1] read?
Answer: decomp

Question: And the LD50 (rats; [2])?
Answer: 2 g/kg body weight

Question: For `CC(O)C(=O)O` (stereo not drawn) [lactic acid], which LD50 (rats; rat, in vivo, po) is on record?
Answer: 3.7, 3.5 g/kg body weight

Question: What about the LD50 (rats; [2]) of the same compound?
Answer: 3.7, 3.5 g/kg body weight

Question: Which results are given for `ClCCl` [methylene chloride]?
Answer: Sol. (solubility of water in the liquid) ([1]; unit not given): 1.32 g/100 g; LD50 (rats; [2]): 1.6 g/kg body weight

Question: Which LD50 (rats; rat, in vivo, po) does the source give for `Fc1cc(F)c(F)c(F)c1F` [pentafluorobenzene] here?
Answer: 2 g/kg body weight

Question: What does the source list for `OCC(F)(F)C(F)(F)F` [pentafluoropropyl alcohol]?
Answer: Sol. (solubility of water in the liquid), in words [1]: soluble; LD50 (rats; [2]): 1 g/kg body weight

Question: Which “Sol. (solubility of water in the liquid)” value ([1]; in %) does the source give for `CC1COC(=O)O1` (stereo not drawn) [propylene carbonate] here?
Answer: 23%

Question: And the LD50 (rats; [2])?
Answer: 29 g/kg body weight

Question: With `CC(O)CO` (stereo not drawn) [propylene glycol] as the compound, how does the LD50 (rats; [2]) read?
Answer: 22 g/kg body weight

Question: With “methoxynonafluorobutane [Novec ™ HFE-7100]” as the compound, how does the “Sol. (solubility of water in the liquid)” value ([1]; parts per million by weight) read?
Answer: 95 ppm

Question: What about the LD50 (rats; [2]) of the same compound?
Answer: >5 g/kg body weight

Question: Which results are given for “tetrahydrofurfuryl alcohol polyethyleneglycol ether [Glycofurol]”?
Answer: Sol. (solubility of water in the liquid) ([1]; in %): >50%; LD50 (rats; [2]): 7.8 g/kg body weight

Question: For trimethylene glycol, which LD50 (rats; rat, in vivo, po) is on record?
Answer: 4.77 g/kg body weight
